Measured values from the NIST ThermoML archive (doi:10.1016/j.jct.2006.01.015).
± gives the expanded uncertainty stated by the source.

Columns and labels:
[1] = xn = mol fraction of the nth substance listed; details: 101 kPa, Liquid
[2] = 101 kPa, Liquid

CC#N [acetonitrile] + CC(=O)N(C)C
[1], x1 = 1
Details | mass density [kg/m3]
293.15 K | 782.1 ± 0.7
298.15 K | 776.8 ± 0.7
303.15 K | 771.5 ± 0.8
308.15 K | 766.3 ± 0.8
313.15 K | 761 ± 0.8
318.15 K | 755.7 ± 0.9

CC#N [acetonitrile]
[2]
Details | mass density [kg/m3]
293.15 K | 782.1 ± 0.7
298.15 K | 776.8 ± 0.7
303.15 K | 771.5 ± 0.8
308.15 K | 766.3 ± 0.8
313.15 K | 761 ± 0.8
318.15 K | 755.7 ± 0.9

CN(C)C=O [dimethylformamide]
[2]
Details | mass density [kg/m3]
293.15 K | 949.1 ± 0.9
298.15 K | 944.6 ± 0.9
303.15 K | 940.1 ± 1
308.15 K | 935.7 ± 1
313.15 K | 931.2 ± 1
318.15 K | 926.7 ± 1.1

NC=O [formamide]
[2]
Details | mass density [kg/m3]
293.15 K | 1133 ± 1.2
298.15 K | 1129 ± 1.2
303.15 K | 1125 ± 1.2
308.15 K | 1121 ± 1.3
313.15 K | 1117 ± 1.3
318.15 K | 1113 ± 1.4

CNC(C)=O [N-methylacetamide]
[2]
Details | mass density [kg/m3]
293.15 K | 958.4 ± 0.9
298.15 K | 954.2 ± 1
303.15 K | 950.1 ± 1
308.15 K | 945.9 ± 1
313.15 K | 941.7 ± 1.1
318.15 K | 937.6 ± 1.1

CN(C)C=O [dimethylformamide] + CC#N
[1], x2 = 0
Details | mass density [kg/m3]
293.15 K | 949.1 ± 0.9
298.15 K | 944.6 ± 0.9
303.15 K | 940.1 ± 1
308.15 K | 935.7 ± 1
313.15 K | 931.2 ± 1
318.15 K | 926.7 ± 1.1

CC#N [acetonitrile] + CNC(C)=O
[1], x1 = 1
Details | mass density [kg/m3]
293.15 K | 782.1 ± 0.7
298.15 K | 776.8 ± 0.7
303.15 K | 771.5 ± 0.8
308.15 K | 766.3 ± 0.8
313.15 K | 761 ± 0.8
318.15 K | 755.7 ± 0.9

CC(=O)N(C)C [N,N-dimethylethanamide]
[2]
Details | mass density [kg/m3]
293.15 K | 941 ± 0.9
298.15 K | 936.5 ± 0.9
303.15 K | 932 ± 1
308.15 K | 927.6 ± 1
313.15 K | 923.1 ± 1
318.15 K | 918.6 ± 1.1

CC#N [acetonitrile] + NC=O
[1], x1 = 1
Details | mass density [kg/m3]
293.15 K | 782.1 ± 0.7
298.15 K | 776.8 ± 0.7
303.15 K | 771.5 ± 0.8
308.15 K | 766.3 ± 0.8
313.15 K | 761 ± 0.8
318.15 K | 755.7 ± 0.9
